Format in all cases: cell-based, human
Data set [1] concerns HCT116 (p53-/-) cells. Nature of the data set: Colony formation assay, HCT116 (p53-/-). As to conditions: for Colony formation, colony number: KO (p53-/-), 10 days, three experiments and AVERAGE. The protocol:
(§1) The cells were re-suspended with trypsin-EDTA, and 1000 cells were seeded in 35 mm dishes 48 h after transfection. After 10 days, the cells were washed with PBS and fixed in 4% paraformaldehyde for 10 min before being stained with Crystal violet for 30 min and washed with PBS.

In data set [2] the test system is HCT116 (p53+/+) cells. Nature of the data set: Cell proliferation assay (WST-1), HCT116 (p53+/+). As to conditions: absorbance at 450 nm. The protocol:
(§2) After transfection, a cell proliferation assay was conducted each day using EZ-Cytox (Daeilbio, WST-1; #EZ-1000), using the manufacturer’s instructions. For P50429, the cells were seeded at 3000 or 6000 cells per well with an inhibitor concentration of 25 μM and 12.5 to 100 μM, respectively. EZ-Cytox (DoGEN, EZ-3000) was diluted using media and incubated for 30 min. The absorbance was measured at a wavelength of 450 nm using a microplate absorbance reader (Bio-Rad).

Data set [3] has as its system HCT116 (p53-/-) cells. Nature of the data set: Cell proliferation assay (WST-1), HCT116 (p53-/-). The note with it: for Cell viability (WST-1 absorbance): P53-/-, absorbance at 450 nm. As for the experimental part: as §2
Data set [4] relates to HCT116 (p53+/+) cells. Nature of the data set: Q-PCR relative expression levels, HCT116 (p53+/+).
In data set [5] the test system is HCT116 (p53+/+) cells. Put plainly: Colony formation assay, HCT116 (p53+/+). The note with it: for Colony formation, colony number: WT (p53+/+), 10 days, three experiments and AVERAGE. As for the experimental part: as §1
In data set [6] the test system is HCT116 (p53-/-) cells. Nature of the data set: Q-PCR relative expression levels, HCT116 (p53-/-). The source says:
(d) Western blot analysis was
The data represent the mean ± SD (*;p<0.05,
(1 picture or pasted object on this page, not shown here)

Data set [7] relates to p53. Put plainly: Western blot analysis of protein levels, HCT116 (p53+/+). The protocol:
Stained colonies were counted in three independent experiments. The data represent the mean ± SD (*: p < 0.05, **: p < 0.005, and ***: p < 0.0005).
A total of 10–50 μg protein was extracted from cells and used for Western blot analysis. Briefly, the cells were lysed using protein lysis buffer (50 mM Tris–Cl, 150 mM NaCl, 1% Triton X-100, 1 mM EDTA, 200 mM Na3VO4, 1x proteinase inhibitor, pH 7.4) and the protein concentration was measured using a Micro BCA^TM Protein Assay kit (Thermo Scientific), based on the standard curve of BSA. The antibodies used for immunoblot analysis were purchased and assessed for equal loading as follows: rabbit anti-USP7 (#A300-034, dilution ratio 1:1000) and rabbit anti-USP47 (#A301-048A, 1:1000) from Bethyl Laboratories; mouse anti-Flag (#F1804, 1:1000) from Sigma Aldrich; rabbit anti-ubiquitin (#3933, 1:2000) from Cell Signaling; mouse anti-p53 (#sc-126, 1:1000), and mouse anti-HSP90α/β (#sc-13119, 1:5000) from Santa Cruz Biotechnology; rabbit anti-β-actin (#LF-PA0207, 1:5000) from AbFrontier. Samples were analyzed using SDS-PAGE, and chemiluminescence was measured using the Ez-Capture MG imaging system (ATTO Corporation).

The source of these data is PMC10516900 (Communications Biology, 2023).

Several values for one entry are separate records, joined by “and”; a condition that tells them apart may be missing. Identical values can stand only once.

As to “USP47i: siRNA targeting USP47 (5′-TGAAAAGGGATGTGCAAAA-3′) (chemistry not given here)”, the “Colony formation, colony number” value is 367 and 379 and 377 in data set [1]; 374.333 in data set [1] (mean); 271 and 259 and 252 in data set [5]; 260.667 in data set [5] (mean). In addition, the “colony formation compared to control cells” value in data set [1] (p53-deficient HCT116) was “did not yield any discernible differences”. Also, the “Cell viability (WST-1 absorbance)” value in data set [2] (day 1 after transfection) was found to be 0.327; in data set [2] (day 2 after transfection), 0.527; in data set [2] (day 3 after transfection), 0.7565; in data set [2] (day 4 after transfection) it was 0.9428; in data set [3] (day 1 after transfection), 0.306; in data set [3] (day 2 after transfection), 0.559. Moreover, the results for the “Cell viability (WST-1 absorbance)” value in data set [3] (day 3 after transfection) and in data set [3] (day 4 after transfection) were 0.8146 and 1.235, respectively. Moreover, the “cell viability compared to control cells” value in data set [3] (p53-deficient HCT116) is reported as “did not yield any discernible differences”. Also, the “relative expression level of USP7 (Q-PCR)” value in data set [4] was found to be 1.017; in data set [6], 0.9689. The “relative expression level of USP47 (Q-PCR)” value is 0.5092 in data set [4] and 0.3387 in data set [6]. The “decrease in the number of colonies relative to control cells” value in data set [5] (HCT116 p53+/+, Fig. 1b) is given as “approximately 30%”. The “protein levels of p53” value in data set [7] is recorded as “increased”.
